Experimental data: US20070238785A1, “Use of an anti-atherothrombotic compound in obtaining medicaments intended for the treatment of vascular disorders” (priority 2006, published 2007)
Where a name gives a salt, the structure may show the parent alone.

What was measured:
[1] = tested on: sodium-loaded SHR-SP rat; assay: survival study in sodium-loaded SHR-SP rat; format: in vivo; details: 30 mg/kg/day in food, 1% NaCl in drinking water, from 10 weeks of age; Carrier group 57 days
Protocol: (§1) 10-week old male SHR-SP rats (Charles River) being given 1% NaCl in their drinking water were separated into two groups in random manner and were treated, or not, with the sodium salt of the (R) isomer of the compound of formula (I) (30 mg/kg/day) incorporated in their food.
In a first study, the survival of each group was determined by calculating the percentage of animals alive each day after the start of treatment.
(§2) The results are reported as the mean±S.E.M. Differences are considered significant when P<0.05 after a Student's t test. The survival of the animals is represented on a Kaplan-Meier graph and the results are considered significant when P<0.05 after a log-rank test.

[2] = tested on: sodium-loaded SHR-SP rat; assay: 5-week study in sodium-loaded SHR-SP rat (cardiac hypertrophy, urinary 8-OH-dG, plasma thiostatin); format: in vivo; details: 30 mg/kg/day in food, 5 weeks, compared to Carrier group
Protocol: as §1
In a second study, the rats were monitored over 5 weeks, between 10 and 15 weeks of age, and were then sacrificed in order to quantify a urinary marker of oxidative stress (8-OH-dG) and a plasma marker reflecting acute inflammation (thiostatin, which in the rat is the equivalent of CRP) and in order to determine cardiac hypertrophy.
During the last 24 hours of monitoring, the animals were placed in individual metabolic cages and the urines were collected in sterile tubes (200 μl of 2 mM EDTA). Diuresis was measured and the production of 8-hydroxy-2′-deoxyguanosine (8-OH-dG) was quantified by ELISA assay (Oxis, Bioxytech).
The rats were anaesthetised by intraperitoneal injection of pentobarbital sodium (50 mg/kg, Ceva laboratories). Blood was sampled from the carotid artery (sampling into heparin 5000 IU/ml) in order to measure thiostatin production by ELISA assay (Life Diagnostics). The heart was excised, dried and weighed, and cardiac hypertrophy was determined by dividing the weight of the dry heart by the body weight for each animal in order to standardise the measurement.
as §2

[3] = tested on: carotid thrombosis; assay: models of carotid thrombosis in vivo and ex vivo (occlusion time); details: carotid thrombosis: vascular electrolysis (dog), mechanical lesion (guinea pig), electric stimulation (rat), ex vivo carotid-carotid arterial bypass by glass capillary
[4] = tested on: thrombus; assay: ex vivo anti-thrombotic activity, perfusion chamber model, in patients at high risk of ischaemic CVA
Excerpt: In this study, the sodium salt of the (R) isomer of the compound of formula (I) also has an effect on the measured markers of inflammation (sVCAM, sPAI-1, sP-selectin, thrombomodulin).

[5] = tested on: radial artery; assay: peripheral vasomotor response, provoked hyperaemia test in atheromatous patients; format: in vivo; details: versus placebo, patients treated with aspirin; whatever the dose, single or repeated administration (15 days), about 2 hours after administration
Protocol: This superiority is observed whatever the dose, after single administration or repeated administration (15 days), the vasodilatory effect being evaluated about 2 hours after administration of the medicament.

[6] = tested on: atherosclerotic lesion; assay: experimental models of anti-proliferative, anti-atheromatous and anti-inflammatory effects; format: in vivo
[7] = after 10 days of administration, compared with aspirin

Q: What does the source list for `Cc1ccc2c(c1CCC(=O)O)CCC(NS(=O)(=O)c1ccc(Cl)cc1)C2` [sodium salt of the (R) isomer of the compound of formula (I), 3-{6-[(4-chlorophenylsulphonyl)amino]-2-methyl-5,6,7,8-tetrahydro-naphth-1-yl}propionic acid]?
A: time after which half the rats were dead (survival) [1]: 99 days; cardiac hypertrophy (dry heart weight / body weight) [2]: less marked; plasma thiostatin (acute inflammation) [2]: lower; total amount of 8-OH-dG in urines over 24 hours (oxidative stress) [2]: reduced; occlusion time [3]: lengthens the occlusion time in dose-dependent manner; % adhesion [4, 7]: superiority; dense surface area of the thrombus [4, 7]: superiority; total surface area of the thrombus [4, 7]: superiority; measured markers of inflammation (sVCAM, sPAI-1, sP-selectin, thrombomodulin) ([4]; patients at high risk of ischaemic CVA): has an effect; endothelium-dependent vasodilation [5]: superiority; expression of adhesion molecules and markers such as endothelin, ICAM and VCAM [6]: inhibits; infiltration of macrophages into the vascular wall [6]: inhibits; intima/media ratio [6]: significantly reduces; serum cholesterol [6]: without reducing; surface area of the atherosclerotic lesion [6]: significantly reduces; thickness of the vascular wall [6]: significantly reduces
